# In BindingDB's records for patent US20230285340 (Theravance Biopharma R&D Ip, 2023):
# Target: Neprilysin/Angiotensin-converting enzyme (Homo sapiens, UniProt P08473+P12821)
# Test: Enzyme Inhibition Assays (Assay 1)
row,Ki [nM],SMILES
1,1.26 to 10,"CC(C)OC(=O)C(=O)N[C@H](Cc1ccc(-c2cccc(Cl)c2)cc1)C[C@@H](O)C(=O)O [US20230285340, Example 2G]"
2,1.26 to 10,"CC(C)COC(=O)[C@H](O)C[C@@H](Cc1ccc(-c2cccc(Cl)c2)cc1)NC(=O)C(=O)O [US20230285340, Example 2I]"
3,12.6 to 100,"CC(C)OC(=O)[C@H](O)C[C@@H](Cc1ccc(-c2cccc(Cl)c2)cc1)NC(=O)C(=O)O [US20230285340, Example 2J]"
4,12.6 to 100,"CC(O)(CN(Cc1ccc(-c2ccccc2)cc1)NC(=O)C(=O)O)C(=O)O (stereo unspecified) [US20230285340, Example 12]"
5,1.26 to 10,"O=C(O)C(=O)NN(Cc1ccc(-c2cccc(Cl)c2)cc1)C[C@@H](O)C(=O)O [US20230285340, Example 13]"
6,1.26 to 10,"CCOC(=O)C(=O)NN(Cc1ccc(-c2cc(Cl)ccc2F)cc1)C[C@@H](O)C(=O)O [US20230285340, Example 14F]"

# Further lines, the compound ahead of its results:
row,SMILES,Ki [nM]
1,"O=C(O)C(=O)N[C@H](Cc1ccc(-c2ccccc2)cc1Cl)C[C@@H](O)C(=O)O [US20230285340, Example 4]",1.26 to 10
2,"C[C@@](CO)(C[C@@H](Cc1ccc(-c2ccccc2)cc1)NC(=O)C(=O)O)C(=O)O [US20230285340, Example 9A]",1.26 to 10
3,"C[C@@](CO)(C[C@@H](Cc1ccc(-c2cccc(F)c2)cc1)NC(=O)C(=O)O)C(=O)O [US20230285340, Example 10]",1.26 to 10
4,"CC(C)(c1ccc(-c2ccccc2)cc1)[C@H](C[C@@H](O)C(=O)O)NC(=O)C(=O)O [US20230285340, Example 15]",12.6 to 100
5,"CC(C)(c1ccc(-c2ccccc2)cc1)[C@H](C[C@@H](CO)C(=O)O)NC(=O)C(=O)O [US20230285340, Example 16]",1.26 to 10
